The source of these data is patent US11992012B2, “Diaminotriazine compounds” (BASF SE, priority 2018, dated 2024).

Experiment in all cases: greenhouse pre-emergence herbicidal test
Type in all cases: in vivo
Holding throughout (conditions): 250 g/ha, scale 0 to 100

For one test, the system named is Setaria faberi. An excerpt:
(§1) The culture containers used were plastic flowerpots containing loamy sand with approximately 3.0% of humus as the substrate. The seeds of the test plants were sown separately for each species. For the pre-emergence treatment, the active ingredients, which had been suspended or emulsified in water, were applied directly after sowing by means of finely distributing nozzles. The containers were irrigated gently to promote germination and growth and subsequently covered with transparent plastic hoods until the plants had rooted. This cover caused uniform germination of the test plants, unless this had been impaired by the active ingredients. […] The test period extended over 2 to 4 weeks. During this time, the plants were tended, and their response to the individual treatments was evaluated. Evaluation was carried out using a scale from 0 to 100. 100 means no emergence of the plants, or complete destruction of at least the aerial moieties, and 0 means no damage, or normal course of growth.

Another test concerns Abutilon theophrasti.
Description: as §1

In another test the test system is Echinocloa crus-galli. An excerpt: (§2) The culture containers used were plastic flowerpots containing loamy sand with approximately 3.0% of humus as the substrate. The seeds of the test plants were sown separately for each species.
(§3) For the pre-emergence treatment, the active ingredients, which had been suspended or emulsified in water, were applied directly after sowing by means of finely distributing nozzles. The containers were irrigated gently to promote germination and growth and subsequently covered with transparent plastic hoods until the plants had rooted. This cover caused uniform germination of the test plants, unless this had been impaired by the active ingredients.
(§4) Depending on the species, the plants were kept at 10-25° C. or 20-35° C., respectively.
(§5) The test period extended over 2 to 4 weeks. During this time, the plants were tended, and their response to the individual treatments was evaluated.
(§6) Evaluation was carried out using a scale from 0 to 100. 100 means no emergence of the plants, or complete destruction of at least the aerial moieties, and 0 means no damage, or normal course of growth. A moderate herbicidal activity is given at values of at least 60, a good herbicidal activity is given at values of at least 70, and a very good herbicidal activity is given at values of at least 85.

The next test relates to Alopercurus myosuroides.
Description: as §2, §3, §4, §5, §6

Another test deals with Amaranthus retroflexus.
Description: as §2, §3, §4, §5, §6

Consider `Nc1nc(Nc2c(F)cccc2OCc2ccccc2)nc(C(F)C2CCCC2)n1` (stereo not shown) [Example 202], for which the herbicidal activity in the test on Setaria faberi was determined as 85%; with Abutilon theophrasti, 80%; with Echinocloa crus-galli, 80%.
`COc1ccc(COc2cccc(F)c2Nc2nc(N)nc(C(C)(C)F)n2)cc1` [Example 20]: the herbicidal activity in the test with Setaria faberi was found to be 95%; with Alopercurus myosuroides, 100%; in the test on Echinocloa crus-galli, 100%; in the test on Amaranthus retroflexus, 98%.
Consider `COCc1cccc(COc2c(F)cc(F)c(F)c2Nc2nc(N)nc(C(C)(C)F)n2)c1` [Example 219], for which the herbicidal activity is 100% in the test with Setaria faberi, 100% in the test on Abutilon theophrasti and 85% in the test on Echinocloa crus-galli.
`COC(C)(C)c1nc(N)nc(Nc2c(F)cccc2OCc2ccccc2)n1` [Example 91]: the herbicidal activity with Setaria faberi, with Alopercurus myosuroides, in the test with Echinocloa crus-galli and with Amaranthus retroflexus was 100% in each case.
On to `Nc1nc(Nc2c(F)cccc2OCc2ccccc2)nc(C2(F)CCCC2)n1` [Example 5], for which the herbicidal activity with Setaria faberi is listed as 98%; in the test on Alopercurus myosuroides it was 85%; in the test on Echinocloa crus-galli it was 100%; with Amaranthus retroflexus, 98%.
`CC(C)(F)c1nc(N)nc(Nc2c(F)c(F)cc(Br)c2OCc2ccccc2)n1` [Example 222]: the herbicidal activity with Setaria faberi is listed as 100%; with Abutilon theophrasti it was 98%; in the test on Echinocloa crus-galli, 100%.
As for `Cc1ccc(COc2c(F)cc(F)c(F)c2Nc2nc(N)nc(C(C)(C)F)n2)cc1` [Example 183], the herbicidal activity with Setaria faberi, in the test with Abutilon theophrasti and with Echinocloa crus-galli was 100% in each case.
In the test with Abutilon theophrasti, `CC(C)(F)c1nc(N)nc(Nc2c(F)cccc2OCc2ccccc2)n1` [Example 257] had a herbicidal activity of 100%.
For `CC(C)(F)c1nc(N)nc(Nc2c(F)cccc2OC(F)(F)c2cccc(F)c2)n1` [Example 130], the herbicidal activity in the test on Setaria faberi, with Abutilon theophrasti and in the test on Echinocloa crus-galli was 100% each time.
For the compound `CC(C)(F)c1nc(N)nc(Nc2c(OCc3ccccc3)ccc(F)c2F)n1` [Example 108], the herbicidal activity in the test on Setaria faberi, in the test on Alopercurus myosuroides, in the test with Echinocloa crus-galli and with Amaranthus retroflexus was 100% throughout.
`CC(C)(F)c1nc(N)nc(Nc2c(OCc3ccccc3)cc(F)c(F)c2F)n1` [Example 69]: the herbicidal activity in the test on Setaria faberi, in the test with Alopercurus myosuroides, in the test with Echinocloa crus-galli and in the test with Amaranthus retroflexus was 100% in each case.
`CC(F)(F)c1nc(N)nc(Nc2c(F)cccc2OCc2ccccc2)n1` [Example 96]: the herbicidal activity in the test on Setaria faberi is 95%; in the test with Alopercurus myosuroides, 80%; in the test on Echinocloa crus-galli, 100%; in the test on Amaranthus retroflexus it was 100%.
For the compound `COc1cccc(COc2cccc(F)c2Nc2nc(N)nc(C(C)(C)F)n2)c1` [Example 10], the herbicidal activity in the test with Setaria faberi, in the test on Alopercurus myosuroides, in the test on Echinocloa crus-galli and in the test on Amaranthus retroflexus was 100% throughout.
For the compound `CC(C)(F)c1nc(N)nc(Nc2c(F)c(F)cc(F)c2OCc2ccccc2Br)n1` [Example 232], the herbicidal activity with Setaria faberi, with Abutilon theophrasti and in the test with Echinocloa crus-galli was 100% throughout.
On to `CC(C)(F)c1nc(N)nc(Nc2c(F)cccc2OCc2cccc(Br)c2)n1` [Example 44], for which the herbicidal activity in the test on Setaria faberi and with Abutilon theophrasti was 70% in each case.
Turning to `CC(C)(F)c1nc(N)nc(Nc2c(F)ccc(F)c2OCc2ccccc2F)n1` [Example 172], the herbicidal activity in the test on Setaria faberi, in the test with Abutilon theophrasti and in the test with Echinocloa crus-galli was 100% each time.
For `CC(C)(F)c1nc(N)nc(Nc2c(F)cccc2OCc2ccsc2Cl)n1` [Example 107], the herbicidal activity is listed as 100% with Setaria faberi, 75% in the test with Alopercurus myosuroides, 100% in the test on Echinocloa crus-galli and 75% in the test on Amaranthus retroflexus.
On to `CCc1ccc(COc2cccc(F)c2Nc2nc(N)nc(C(C)(C)F)n2)cc1` [Example 94], for which the herbicidal activity in the test with Alopercurus myosuroides was found to be 100%; with Amaranthus retroflexus, 70%.
For the compound `CC(C)c1ccc(COc2cccc(F)c2Nc2nc(N)nc(C(C)(C)F)n2)cc1` [Example 143], the values for the herbicidal activity with Alopercurus myosuroides and in the test on Amaranthus retroflexus were 90% and 100%, respectively.
As to `Nc1nc(Nc2c(F)cccc2OCc2ccccc2F)nc(C2(F)CCCC2)n1` [Example 19], the herbicidal activity with Setaria faberi stood at 85%; with Alopercurus myosuroides, 70%; in the test with Amaranthus retroflexus, 80%.
For `CC(C)(F)c1nc(N)nc(Nc2c(F)cccc2OCc2ccccc2)n1` [Example 4], the herbicidal activity in the test on Setaria faberi, in the test with Alopercurus myosuroides, in the test on Echinocloa crus-galli and with Amaranthus retroflexus was 100% in each case.
As for `Nc1nc(Nc2c(F)cccc2OCc2cccc(F)c2)nc(C2(F)CCCC2)n1` [Example 18], the herbicidal activity is listed as 85% in the test with Setaria faberi, 70% in the test with Alopercurus myosuroides, 70% in the test on Echinocloa crus-galli and 70% with Amaranthus retroflexus.
Regarding `CC(C)(F)c1nc(N)nc(Nc2c(F)cc(F)cc2OCc2ccccc2)n1` [Example 60], the herbicidal activity is on record as 100% in the test with Setaria faberi, 98% in the test on Alopercurus myosuroides, 100% in the test on Echinocloa crus-galli and 100% in the test with Amaranthus retroflexus.
Consider `CC(C)(F)c1nc(N)nc(Nc2c(F)cccc2OCc2cnc(Cl)s2)n1` [Example 39], for which the herbicidal activity in the test with Setaria faberi worked out at 90%; with Alopercurus myosuroides, 90%; with Echinocloa crus-galli, 100%; with Amaranthus retroflexus it was 80%.
As for `CC(C)(F)c1nc(N)nc(Nc2c(F)cccc2OCc2cccc(F)c2)n1` [Example 11], the herbicidal activity with Setaria faberi, in the test with Alopercurus myosuroides, in the test with Echinocloa crus-galli and in the test with Amaranthus retroflexus was 100% each time.
With `Nc1nc(Nc2c(F)cccc2OCc2ccccc2)nc(C2(F)CC2)n1` [Example 184], the herbicidal activity stood at 85% with Alopercurus myosuroides, 98% in the test on Echinocloa crus-galli and 95% in the test on Amaranthus retroflexus.
In the case of `COc1cccc(COc2cc(F)c(F)c(F)c2Nc2nc(N)nc(C(C)(C)F)n2)c1` [Example 98], the herbicidal activity with Setaria faberi was 100%; with Alopercurus myosuroides, 80%; in the test on Echinocloa crus-galli, 100%; with Amaranthus retroflexus, 90%.
With `Cc1ccc(COc2cccc(F)c2Nc2nc(N)nc(C(C)(C)F)n2)cc1` [Example 9], the herbicidal activity amounted to 100% in the test with Setaria faberi, 80% in the test on Alopercurus myosuroides, 100% with Echinocloa crus-galli and 95% in the test with Amaranthus retroflexus.
As to `COc1cccc(COc2c(F)cc(F)c(F)c2Nc2nc(N)nc(C(C)(C)F)n2)c1` [Example 164], the herbicidal activity in the test with Setaria faberi, with Alopercurus myosuroides and in the test with Echinocloa crus-galli was 100% throughout.
